Experimental findings from US7122666B2, “Heteroaryl-substituted pyrrole derivatives, their preparation and their therapeutic uses” (Sankyo Company, Limited, priority 1999, dated 2006) are described below.

Experiment [1] has as its system TNFα production in human whole blood. Description: Inhibition of the production of TNFα in vitro in human whole blood (Test Examples 1 and 1′). The following applies: Table 7′, lipopolysaccharide 10 μg/ml, 6 hours at 37° C., plasma TNFα by ELISA, least squares, read-out: Inhibitory Effect on TNFα Production (in vitro) IC50. The format is cell-based. As for the experimental part:
(§1) Inhibition of the Production of the Cytokines IL-1β and TNFα in Vitro in Human Whole Blood
(§2) This test was performed according to the method of Hartman, et al. [D. A. Hartman, S. J. Ochalski and R. P. Carlson; The effects of anti-inflammatory and antiallergic drugs on cytokine release after stimulation of human whole blood by lipopolysaccharide and zymosan A: Inflamm. Res., 44, 269 (1995)].
(§3) Peripheral blood samples were collected in the presence of heparin from healthy adult volunteers. 1000 μl of whole blood were added to an Eppendorf tube to which 2 μl of a dimethyl sulfoxide solution of the test compound had been added in advance, after which 10 μl of lipopolysaccharide (E. coli 026: B6 origin, Difco) were added as a stimulant (final concentration of said lipopolysaccharide: 10 μg/ml). This was mixed well and then incubated for 6 hours at 37° C. in the presence of 5% CO2. At the end of the incubation, the mixture was cooled to 4° C. to stop the reaction, followed immediately by centrifuging for 5 minutes at 14,000 rpm to separate and collect the supernatant plasma. The IL-1β and TNFα produced and released into the plasma were measured using a commercially available enzyme immunoassay (ELISA) kit [Cayman (IL-1β) and Genzyme (TNFα)]. The procedure was also repeated in the absence of test compound. The inhibitory effect [IC50 (μM)] on the production of IL-1β and TNFα was determined from the amounts of the cytokines produced in the presence and absence of the test compound.
(§4) Inhibition of the Production of the Cytokines IL-1β and TNFα In Vitro in Human Whole Blood
as §3, with “O26:” for “026:”, “plasma” for “plasma.”, “kits” for “kit”, “determined by the method of least squares” for “determined”

In experiment [2] the test system is TNFα production. Nature of the experiment: Inhibition of the production of TNFα in vivo (Test Examples 2 and 2′). As to conditions: Table 9′; Balb/c mice, oral administration 30 minutes before intravenous lipopolysaccharide, plasma TNFα 1 hour after LPS. The procedure: This test was performed according to the method of Ochalski, et al. [S. J. Ochalski, D. A. Hartman, M. T. Belfast, T. L. Walter, K. B. Glaser and R. P. Carlson; Inhibition of endotoxin-induced hypothermia and serum TNF-α levels in CD-1 mice by various pharmacological agents: Agents Actions 39, C52–C54 (1993)].
The production of TNFα was induced in mice by the intravenous injection of lipopolysaccharide (E. coli O26: B6 origin, Difco) which was prepared to a concentration of 0.045 mg/ml using physiological saline. The saline preparation of lipopolysaccharide was administered at the rate of 10 ml/l kg of body weight into the caudal vein of Balb/c mice (males, age 5–7 weeks, body weight: approx. 22 g, Japan Charles River) which had been fasted overnight starting on the day before the experiment. One hour after administration, the mice were laparotomized under ether anaesthesia and blood was collected from the abdominal vena cava. Blood collection was performed using a 1 ml volume disposable syringe equipped with a 23G needle which had been moistened with heparin on the inside wall. Following blood collection, the blood was immediately transferred to a 1.5 ml volume Eppendorf tube and centrifuged at 4° C. and 14,000 rpm to separate the plasma. This plasma was then stored at −20° C. until measurement of TNFα. The measurement of the amount of TNFα was performed with a commercially available enzyme immunoassay (ELISA) kit (Mouse TNFα ELISA KIT, Genzyme).
To determine the inhibitory activity of the test compounds, each test compound was suspended in a 0.5% tragacanth solution and then administered orally to the Balb/c mice at the rate of 10 ml/1 kg of body weight 30 minutes before injection of lipopolysaccharide. The level of TNFα production was then determined as described above. In the control group, 0.5% tragacanth solution was administered at the rate of 10 ml/1 kg of body weight to the test mice instead of the solutions of the test compounds. A minimum of 3 dose levels of the test compound was administered to groups of 5 test mice for each test compound. The inhibitory rate relative to the control group was calculated for each dose level. From the inhibitory rates and the dosages, ID50 values were calculated by the least squares method.
The production of TNFα was induced in mice by the intravenous injection of lipopolysaccharide (E. coli O26: B6 origin, Difco) which was prepared to a concentration of 0.045 mg/ml using physiological saline. […]
To determine the inhibitory activity of the test compounds, each test compound was suspended in a 0.5% tragacanth solution and then administered orally to the Balb/c mice at the rate of 10 ml/1 kg of body weight 30 minutes before injection of lipopolysaccharide. The level of TNFα production was then determined as described above. […]

Experiment [3] relates to IL-1β production in human whole blood. Nature of the experiment: Inhibition of the production of IL-1β in vitro in human whole blood (Test Examples 1 and 1′). The format is cell-based. As to conditions: Table 8′, lipopolysaccharide 10 μg/ml, 6 hours at 37° C., plasma IL-1β by ELISA, least squares, read-out: Inhibitory Effect on IL-1β Production (in vitro) IC50. The procedure: as §1, §2, §3, §4
as §3, with “O26:” for “026:”, “plasma” for “plasma.”, “kits” for “kit”, “determined by the method of least squares” for “determined”

pIC50: −log10 of the molar value.

On to `CC1C[C@H]2C=C(c3c[nH]c(-c4ccc(F)cc4)c3-c3ccncc3)CCN2C1` (stereo partly drawn) [Example 16′, 2-(4-Fluorophenyl)-4-[(8aS)-2-methyl-1,2,3,5,6,8a-hexahydroindolizin-7-yl]-3-(pyridin-4-yl)1H-pyrrole], for which the pIC50 is 8.66 in experiment [1] and 8.77 in experiment [3]. The “Inhibitory Effect on TNFα Production (in vivo) IC50” value in experiment [2] is 0.71 mg/kg.
